Assay results from patent publication US20260042764A1, “COMPOSITIONS AND METHODS FOR INHIBITION OF KRAS” (TheRas, Inc., priority 2022, published 2026).

Key:
[1] = target: T1, Avi-KRAS G12D (2-169) GTP/RAF1 RBD-3xFLAG (51-131) (Homo sapiens, UniProt P01116, G12D); assay: Raf1-KRAS G12D-GTP disruption HTRF assay (Biological Example 3); assay type: binding
T1 construct: Avi-KRAS G12D (2-169)
In short: (§1)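 50 nM Avi-KRAS (2-169) GTP/RAF1 RBD complex; 75 nM RBD-Avi; pH 7.5 Tris buffer, 10% DMSO; cpd 30 μM top, 3x, 10 pts; 1 h RT, 700 rpm; HTRF, % of DMSO.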

GP2d cells (KRAS G12D) = assay: Cell-based pERK HTRF assay in GP2d cell (Biological Example 2)
In short: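 HTRF read-out of pERK (excitation 320 nm, emission 615 nm) after lysates sat 4–24 h at room temperature with Eu cryptate and d2 antibodies.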

[2] = target: T2, Avi-KRAS G12C (2-169) GTP/RAF1 RBD-3xFLAG (51-131) (Homo sapiens, UniProt P01116, G12C); assay: Raf1-KRAS G12C-GTP disruption HTRF assay (Biological Example 3); assay type: binding
T2 construct: Avi-KRAS G12C (2-169)
T2 sequence (P01116 2-169 isoform P01116-2 G12C): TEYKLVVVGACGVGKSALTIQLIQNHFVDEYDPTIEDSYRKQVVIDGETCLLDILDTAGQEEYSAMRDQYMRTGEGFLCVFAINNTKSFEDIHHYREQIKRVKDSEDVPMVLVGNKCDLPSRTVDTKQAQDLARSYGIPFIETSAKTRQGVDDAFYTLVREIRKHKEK
In short: as §1

[3] = target: T3, Avi-KRAS G12V (2-169) GTP/RAF1 RBD-3xFLAG (51-131) (Homo sapiens, UniProt P01116, G12V); assay: Raf1-KRAS G12V-GTP disruption HTRF assay (Biological Example 3); assay type: binding
T3 construct: Avi-KRAS G12V (2-169)
T3 sequence (P01116 2-169 isoform P01116-2 G12V): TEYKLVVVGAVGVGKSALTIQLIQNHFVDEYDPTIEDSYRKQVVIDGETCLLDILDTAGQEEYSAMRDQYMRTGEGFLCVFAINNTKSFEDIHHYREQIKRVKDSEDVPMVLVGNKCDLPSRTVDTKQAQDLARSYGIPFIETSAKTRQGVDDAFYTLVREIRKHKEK
In short: as §1

SW620 cells (KRAS G12V) = assay: Cell-based pERK HTRF assay in SW620 cell (Biological Example 4)
In short: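 SW620 seeded in RPMI/10% FBS, next day dosed 4 h (top 1 μM, half-log, 9 pts, 0.25% DMSO). Lysed, pERK by d2/Eu cryptate HTRF, 4–24 h RT, 615 nm read.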

[4] = target: T4, Avi-KRAS WT (2-169) GTP/RAF1 RBD-3xFLAG (51-131) (Homo sapiens, UniProt P01116); assay: Raf1-KRAS WT-GTP disruption HTRF assay (Biological Example 3); assay type: binding
T4 construct: Avi-KRAS WT (2-169)
T4 sequence (P01116 2-169 isoform P01116-2): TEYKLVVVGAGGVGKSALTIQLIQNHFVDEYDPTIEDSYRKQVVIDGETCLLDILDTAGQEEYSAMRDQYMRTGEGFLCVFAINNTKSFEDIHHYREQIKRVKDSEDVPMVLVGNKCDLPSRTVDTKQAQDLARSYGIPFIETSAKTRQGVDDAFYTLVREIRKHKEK
In short: as §1

[5] = Homo sapiens, SW-620, SW620 (KRAS G12V) cells
[6] = Homo sapiens, SW-620, SW620 cells (KRAS G12V)

T1 sequence (P01116 2-169 isoform P01116-2 G12D): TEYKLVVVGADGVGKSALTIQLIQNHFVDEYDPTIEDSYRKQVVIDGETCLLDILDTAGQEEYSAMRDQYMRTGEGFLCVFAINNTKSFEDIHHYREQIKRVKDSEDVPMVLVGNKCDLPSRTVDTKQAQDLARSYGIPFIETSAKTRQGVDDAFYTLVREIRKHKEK

Compound	IC50 ([1]; KRAS G12D, GTP-loaded) [nM]	IC50 (GP2d cells (KRAS G12D); GP2d, GP2d (KRAS G12D) cells) [nM]	IC50 ([2]; KRAS G12C, GTP-loaded) [nM]	IC50 ([3]; KRAS G12V, GTP-loaded) [nM]	IC50 (SW620 cells (KRAS G12V); [5]) [nM]	IC50 ([4]; KRAS WT, GTP-loaded) [nM]	IC50 ([1]; KRAS G12D-GTP / RAF1 RBD HTRF) [nM]	IC50 (GP2d cells (KRAS G12D); GP2d, GP2d cells (KRAS G12D)) [nM]	IC50 ([2]; KRAS G12C-GTP / RAF1 RBD HTRF) [nM]	IC50 ([3]; KRAS G12V-GTP / RAF1 RBD HTRF) [nM]	IC50 (SW620 cells (KRAS G12V); [6]) [nM]	IC50 ([4]; KRAS WT-GTP / RAF1 RBD HTRF) [nM]	IC50 (GP2d cells (KRAS G12D); GP2d (KRAS G12D) cells) [nM]	IC50 (SW620 cells (KRAS G12V); SW620 (KRAS G12V) cells) [nM]
CCN(c1nc(OC[C@@]23CCCN2C[C@H](F)C3)nc2c(F)c(-c3ccc(F)c4sc(N)c(C#N)c34)c(C(F)(F)F)cc12)[C@H]1CCN(C(=O)O[C@@H]2CCCOC2)C1 (atropisomer, axis not shown) [Compound 796]	100 to 1000	< 100	100 to 1000	100 to 1000	< 100	100 to 1000								
CCN(c1nc(OC[C@@]23CCCN2C[C@H](F)C3)nc2c(F)c(-c3ccc(F)c4sc(N)c(C#N)c34)c(C(F)(F)F)cc12)[C@H]1CCN(c2nccs2)C1 [Compound 973]							100 to 1000	< 100	100 to 1000	100 to 1000	< 100	1000 to 10000		
CCN(c1nc(OC[C@@]23CCCN2C[C@H](F)C3)nc2c(F)c(-c3ccc(F)c4sc(N)c(C#N)c34)c(C(F)(F)F)cc12)[C@H]1CCN(C(=O)c2ncoc2C)C1 (atropisomer, axis not shown) [Compound 901]	100 to 1000	< 100	100 to 1000	100 to 1000	< 100	100 to 1000								
CCN(c1nc(OC[C@@]23CCCN2C[C@H](F)C3)nc2c(F)c(-c3ccc(F)c4sc(N)c(C#N)c34)c(C(F)(F)F)cc12)[C@H]1CC[C@@H](C(=O)N(C)C)C1 (atropisomer, axis not shown) [Compound 661]	100 to 1000	< 100	1000 to 10000	1000 to 10000	< 100	100 to 1000								
CCN(c1nc(OC[C@@]23CCCN2C[C@H](F)C3)nc2c(F)c(-c3ccc(F)c4sc(N)c(C#N)c34)c(C(F)(F)F)cc12)[C@H]1C[C@H]2[C@H](C)N(C)C(=O)N2C1 (atropisomer, axis not shown) [Compound 863]	≤ 100	< 100	≤ 100	≤ 100	< 100	100 to 1000								
CCN(c1nc(OC[C@@]23CCCN2C[C@H](F)C3)nc2c(F)c(-c3ccc(F)c4sc(N)c(C#N)c34)c(C(F)(F)F)cc12)[C@H]1C[C@@H]2CCN(C)C(=O)N2C1 (atropisomer, axis not shown) [Compound 667]	100 to 1000	< 100	100 to 1000	100 to 1000	< 100	100 to 1000								
CCN(c1nc(OC[C@@]23CCCN2C[C@H](F)C3)nc2c(F)c(-c3ccc(F)c4sc(N)c(C#N)c34)c(C(F)(F)F)cc12)[C@@H]1CC[C@H](C(=O)N(C)C)C1 [Compound 959]	1000 to 10000	< 100	1000 to 10000	1000 to 10000	< 100	1000 to 10000								
CCN(c1nc(OC[C@@]23CCCN2C[C@H](F)C3)nc2c(F)c(-c3ccc(F)c4sc(N)c(C#N)c34)c(C(F)(F)F)cc12)[C@@H]1CN2C(=O)N(C)C[C@]2(C)C1 (atropisomer, axis not shown) [Compound 858]	100 to 1000	< 100	100 to 1000	100 to 1000	< 100	100 to 1000								
CN(Cc1ccon1)c1nc(OC[C@@]23CCCN2C[C@H](F)C3)nc2c(F)c(-c3ccc(F)c4sc(N)c(C#N)c34)c(C(F)(F)F)cc12 (atropisomer, axis not shown) [Compound 856]	100 to 1000	< 100	1000 to 10000	100 to 1000	< 100	1000 to 10000								
CCN(c1nc(OC[C@@]23CCCN2C[C@H](F)C3)nc2c(F)c(-c3ccc(F)c4sc(N)c(C#N)c34)c(C(F)(F)F)cc12)[C@H]1CCCOC1 (atropisomer, axis not shown) [Compound 965]	100 to 1000	< 100	100 to 1000	100 to 1000	< 100	100 to 1000								
CCN(c1nc(OC[C@@]23CCCN2C[C@H](F)C3)nc2c(F)c(-c3ccc(F)c4sc(N)c(C#N)c34)c(C(F)(F)F)cc12)[C@H]1CCN(C(=O)c2ccon2)[C@@H]1C [Compound 838]	100 to 1000	< 100	100 to 1000	100 to 1000	< 100	100 to 1000								
CCN(c1nc(OC[C@@]23CCCN2C[C@H](F)C3)nc2c(F)c(-c3ccc(F)c4sc(N)c(C#N)c34)c(C(F)(F)F)cc12)[C@H]1C[C@H]2CN(CC(F)F)C(=O)N2C1 (atropisomer, axis not shown) [Compound 940]	100 to 1000	< 100	100 to 1000	100 to 1000	< 100	100 to 1000								
N#Cc1c(N)sc2c(F)ccc(-c3c(C(F)(F)F)cc4c(N5CCC(c6cccnc6)C5)nc(OC[C@@]56CCCN5C[C@H](F)C6)nc4c3F)c12 (stereo partly drawn) [Compound 943]	> 10000	< 100	> 10000	> 10000	< 100	> 10000								
CN(c1nc(OC[C@@]23CCCN2C[C@H](F)C3)nc2c(F)c(-c3ccc(F)c4sc(N)c(C#N)c34)c(C(F)(F)F)cc12)[C@@H]1CCCc2ccncc21 (atropisomer, axis not shown) [Compound 972]							100 to 1000	< 100	100 to 1000	100 to 1000	< 100	100 to 1000		

Now from value to compound:

IC50 ([1]; KRAS G12D, GTP-loaded) [nM]	IC50 (GP2d cells (KRAS G12D); GP2d, GP2d (KRAS G12D) cells) [nM]	IC50 ([2]; KRAS G12C, GTP-loaded) [nM]	IC50 ([3]; KRAS G12V, GTP-loaded) [nM]	IC50 (SW620 cells (KRAS G12V); [5]) [nM]	IC50 ([4]; KRAS WT, GTP-loaded) [nM]	IC50 ([1]; KRAS G12D-GTP / RAF1 RBD HTRF) [nM]	IC50 (GP2d cells (KRAS G12D); GP2d, GP2d cells (KRAS G12D)) [nM]	IC50 ([2]; KRAS G12C-GTP / RAF1 RBD HTRF) [nM]	IC50 ([3]; KRAS G12V-GTP / RAF1 RBD HTRF) [nM]	IC50 (SW620 cells (KRAS G12V); [6]) [nM]	IC50 ([4]; KRAS WT-GTP / RAF1 RBD HTRF) [nM]	IC50 (GP2d cells (KRAS G12D); GP2d (KRAS G12D) cells) [nM]	IC50 (SW620 cells (KRAS G12V); SW620 (KRAS G12V) cells) [nM]	Compound
100 to 1000	< 100	100 to 1000	100 to 1000	< 100	100 to 1000									CCN(c1nc(OC[C@@]23CCCN2C[C@H](F)C3)nc2c(F)c(-c3ccc(F)c4sc(N)c(C#N)c34)c(C(F)(F)F)cc12)[C@H]1CCN(C(=O)O[C@H]2CCCOC2)C1 (atropisomer, axis not shown) [Compound 822]
100 to 1000	< 100	1000 to 10000	1000 to 10000	< 100	1000 to 10000									CO[C@H](C)C(=O)N1CC[C@H](N(c2nc(OC[C@@]34CCCN3C[C@H](F)C4)nc3c(F)c(-c4ccc(F)c5sc(N)c(C#N)c45)c(C(F)(F)F)cc23)C2CC2)C1 (atropisomer, axis not shown) [Compound 826]
100 to 1000	< 100	100 to 1000	100 to 1000	< 100	100 to 1000									CCN(c1nc(OC[C@@]23CCCN2C[C@H](F)C3)nc2c(F)c(-c3ccc(F)c4sc(N)c(C#N)c34)c(C(F)(F)F)cc12)[C@H]1CCN(C(=O)[C@@H]2C[C@H]2F)[C@@H]1C (atropisomer, axis not shown) [Compound 892]
100 to 1000	< 100	100 to 1000	100 to 1000	< 100	100 to 1000									CCN(c1nc(OC[C@@]23CCCN2C[C@H](F)C3)nc2c(F)c(-c3ccc(F)c4sc(N)c(C#N)c34)c(C(F)(F)F)cc12)[C@H]1CCN(C(=O)c2cocn2)[C@@H]1C (atropisomer, axis not shown) [Compound 900]
100 to 1000	< 100	100 to 1000	100 to 1000	< 100	100 to 1000									CCN(c1nc(OC[C@@]23CCCN2C[C@H](F)C3)nc2c(F)c(-c3ccc(F)c4sc(N)c(C#N)c34)c(C(F)(F)F)cc12)[C@H]1CCN(C(=O)c2coc(C)n2)[C@@H]1C (atropisomer, axis not shown) [Compound 899]
1000 to 10000		> 10000	> 10000		> 10000							< 100	100 to 1000	CCN(c1nc(OC[C@]23CCCN2C[C@H](F)C3)nc2c(F)c(-c3ccc(F)c4sc(N)c(C#N)c34)c(C(F)(F)F)cc12)[C@H]1CCN(C(=O)OC)C1 (atropisomer, axis not shown) [Compound 955]
